Data: patent US20070167408A1, “NOVEL ALKYL PHOSPHOLIPID DERIVATIVES WITH REDUCED CYTOTOXICITY AND USES THEREOF” (ZENTARIS GmbH, priority 2005, published 2007)
Values after ≈ are worked out from the molar mass of the structure shown.

What was measured:
Format in all cases: cell-based
[1] = test system: Cryptococcus gattii ATCC 32608; experiment: Anti-fungal broth microdilution (MIC), fungus J; settings: yeast protocol, more than 80% inhibition, 48 h
Outline: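 Broth microdilution per NCCLS M27-A (yeasts) and M38-A (filamentous fungi), compounds tested from 64 down to 0.125 μg/ml against 10^6 CFU/ml inocula. For filamentous fungi, MIC read after 48 to 72 h at 35° C as the concentration giving more than 50% visible growth inhibition.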

[2] = test system: PC3 (human prostate carcinoma) cells; experiment: XTT cytotoxicity assay, PC3 cells; settings: 31.6 μM, second set of experiments
Outline: (§1)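 Cells recovered 24 h after plating, then exposed to compounds for 48 h at 37 °C; one set used 10 semi-log concentrations from 100 μM, another 31.6 μM final for PC3 and RKOp21. XTT-PMS added for 3 h, formazan absorbance at 490 nm versus untreated cells; IC50 from inhibition curves.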

[3] = test system: Streptococcus pneumoniae DSM 20566 (ATCC 33400); experiment: Anti-bacterial bouillon microdilution assay (MIC), bacterium A; settings: Streptococcus pneumoniae DSM 20566, 24 h
Description: Selected compounds of the invention were tested in a bouillon microdilution assay method according to the DIN 58940 (www.din.de) guidelines for determination of susceptibility of bacterial strains with regard to cell growth inhibition. The assay method quantifies bacterial cell growth which corresponds to the turbidity of the liquid culture medium by photometric measurement carried out at 595 nm.
The method of MIC determination was performed according to DIN 58940-5. The volumina were adapted according to the microdilution method as described in DIN 58940-7 guideline.
Dependent on water solubility, compounds of the invention were dissolved either in water or ethanol in a concentration of 10 mg/ml. Subsequently, the stock was further diluted in water to a concentration of 512 μg/ml. The following serial dilutions (factor 2) were performed in water resulting in the following […] testing concentrations: 256 μg/ml, 128 μg/ml, 64 μg/ml, 32 μg/ml, 16 μg/ml, 8 μg/ml, 4 μg/ml, 2 μg/ml, 1 μg/ml, 0.5 μg/ml, 0.25 μg/ml and 0.125 μg/ml. Diluted compounds of the invention were transferred in 100 μl volume to the microtiter plate wells.
Pre-cultures of bacteria were grown in appropriate liquid media (refer to ATCC webpage, www.atcc.org) and afterwards were inoculated in corresponding liquid medium. 100 μl of the inoculums [adjusted to an amount of app. 1×10^6 microorganisms per ml (range of 10^5-10^8 microorganisms per ml)] were added to each of the testing compound concentrations and cultivated under the appropriate conditions.
Before and after incubation, bacterial growth was determined by photometric analysis against a positive control containing growing bacteria without compound and a sterile/negative control containing only the medium.

[4] = test system: Aspergillus fumigatus ATCC 204305; experiment: Anti-fungal broth microdilution (MIC), fungus A; settings: filamentous protocol, more than 50% growth inhibition, 48 to 72 h
Outline: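 Broth microdilution followed NCCLS M27-A for the Candida yeasts and M38-A for the Aspergillus filamentous strains, testing 64 down to 0.125 μg/ml in twofold steps against a 10^6 CFU/ml inoculum. For Aspergillus, MIC was read after 48 to 72 h at 35 °C as the concentration giving >50% visible growth inhibition.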

[5] = test system: RKOp21 (human colon adenocarcinoma) cells; experiment: XTT cytotoxicity assay, RKOp21 cells; settings: 31.6 μM, second set of experiments
Outline: as §1

## CCCCCCCCCCCCCCCCOP(=O)([O-])OCC[N+]1(C)CCCCC1 [Compound 2, Phosphoric acid hexadecyl ester 2-(1-methyl-piperidin-1-yl)-ethyl ester]
[1]
  MIC, fungus J: 0.75 µg/mL (≈ 1.68 µM)
[2]
  PC3 % INH [31.6 μM]: 50.1%
[3]
  MIC, bacterium A: 8 µg/mL (≈ 17.9 µM)
[4]
  MIC, fungus A: 2 µg/mL (≈ 4.47 µM)
[5]
  RKOp21 % INH [31.6 μM]: 38.8%

## CCCCCCCCCCCCCCCCOP(=O)([O-])OCC[N+](C)(C)C [miltefosine, hexadecylphosphocholine, reference compound]
[2]; Homo sapiens, PC-3, read-out: PC3 % INH [31.6 μM]
  inhibition at 31.6 µM: 67.4%
[3]
  MIC: 128 µg/mL (≈ 314 µM)
[5]; Homo sapiens, read-out: RKOp21 % INH [31.6 μM]
  inhibition at 31.6 µM: 64%
